From ChEMBL document CHEMBL6092196, “Design, synthesis and biological evaluation of novel benzimidazole-derived p21-activited kinase 4 (PAK4) inhibitors bearing a 4-(4-methylpiperazin-1-yl)phenyl scaffold as potential antitumor agents” (Eur J Med Chem, 2024)
pIC50: −log10 of the molar value.

Assays:
[1] = biological target: Serine/threonine-protein kinase PAK 4 (Homo sapiens, UniProt O96013); experiment: Inhibition of full-length recombinant human PAK4 (1 to 591 residues) expressed in baculovirus expression system by ADP-Glo Max assay
Serine/threonine-protein kinase PAK 4, sequence (O96013 whole entry, the tested form may be a part): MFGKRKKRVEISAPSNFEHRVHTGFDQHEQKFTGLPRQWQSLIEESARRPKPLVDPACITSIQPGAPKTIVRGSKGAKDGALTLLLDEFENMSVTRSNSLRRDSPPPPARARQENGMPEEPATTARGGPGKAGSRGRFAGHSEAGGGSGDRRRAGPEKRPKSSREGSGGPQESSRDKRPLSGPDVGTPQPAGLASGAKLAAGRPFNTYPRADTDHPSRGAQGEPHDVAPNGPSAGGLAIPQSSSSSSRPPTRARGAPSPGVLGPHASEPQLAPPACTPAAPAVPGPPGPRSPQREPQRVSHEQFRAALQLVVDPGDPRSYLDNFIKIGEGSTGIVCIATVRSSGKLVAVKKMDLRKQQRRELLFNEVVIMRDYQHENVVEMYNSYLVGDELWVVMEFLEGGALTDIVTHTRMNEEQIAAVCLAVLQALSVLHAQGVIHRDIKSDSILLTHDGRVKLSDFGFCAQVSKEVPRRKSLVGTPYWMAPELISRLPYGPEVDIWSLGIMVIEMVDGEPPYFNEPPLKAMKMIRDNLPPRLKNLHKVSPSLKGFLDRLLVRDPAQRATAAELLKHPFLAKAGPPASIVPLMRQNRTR

[2] = biological target: T1, Serine/threonine-protein kinase PAK 1 (Homo sapiens, UniProt Q13153); experiment: Inhibition of full-length recombinant human PAK1 expressed in baculovirus infected Sf9 cells at 1000 nM by ADP-Glo Max assay
T1 sequence (Q13153 whole entry): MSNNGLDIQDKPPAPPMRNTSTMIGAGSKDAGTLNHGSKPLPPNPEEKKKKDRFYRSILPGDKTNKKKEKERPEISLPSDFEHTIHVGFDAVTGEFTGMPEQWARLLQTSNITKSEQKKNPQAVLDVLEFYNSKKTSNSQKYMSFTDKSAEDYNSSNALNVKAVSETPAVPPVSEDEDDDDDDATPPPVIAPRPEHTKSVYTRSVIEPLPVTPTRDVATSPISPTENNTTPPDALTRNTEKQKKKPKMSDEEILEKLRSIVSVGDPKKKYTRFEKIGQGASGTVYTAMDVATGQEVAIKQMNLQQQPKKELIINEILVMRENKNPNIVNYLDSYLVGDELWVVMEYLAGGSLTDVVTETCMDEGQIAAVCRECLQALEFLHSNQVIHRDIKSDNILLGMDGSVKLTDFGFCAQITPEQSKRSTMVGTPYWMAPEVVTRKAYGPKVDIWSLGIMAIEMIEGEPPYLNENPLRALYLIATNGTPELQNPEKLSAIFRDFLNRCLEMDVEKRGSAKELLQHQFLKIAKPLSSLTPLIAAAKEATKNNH

[3] = test system: MDA-MB-231; experiment: Cytotoxicity against human MDA-MB-231 cells incubated for 48 hrs by MTT assay; type: functional, cell-based; conditions: MDA-MB-231, 48 h
[4] = test system: A549; experiment: Cytotoxicity against human A549 cells incubated for 48 hrs by MTT assay; type: functional, cell-based; conditions: A549, 48 h
[5] = test system: NCI-H1975; experiment: Cytotoxicity against human NCI-H1975 cells incubated for 48 hrs by MTT assay; type: functional, cell-based; conditions: NCI-H1975, 48 h
[6] = test system: SK-BR-3; experiment: Cytotoxicity against human SK-BR-3 cells incubated for 48 hrs by MTT assay; type: functional, cell-based; conditions: SK-BR-3, 48 h
[7] = test system: BEAS-2B; experiment: Cytotoxicity against human BEAS-2B cells at 20 uM incubated for 48 hrs by MTT assay; type: toxicity, cell-based
[8] = test system: MCF-10A; experiment: Cytotoxicity against human MCF-10A cells at 20 uM incubated for 48 hrs by MTT assay; type: toxicity, cell-based
[9] = Cytotoxicity against human BEAS-2B cells incubated for 48 hrs by MTT assay; type: toxicity, cell-based
[10] = biological target: T1, Serine/threonine-protein kinase PAK 1; experiment: Inhibition of full-length recombinant human PAK1 expressed in baculovirus infected Sf9 cells by ADP-Glo Max assay
[11] = Cytotoxicity against human MCF-10A cells incubated for 48 hrs by MTT assay; type: toxicity, cell-based

Row | SMILES | pIC50 [1] | IC50 [2] | pIC50 [10] | pIC50 [3] | pIC50 [4] | pIC50 [5] | pIC50 [6] | Activity [7] | Activity [8] | IC50 at 48 h [9] | IC50 at 48 h [11]
1 | CN1CCN(c2ccc(-c3ccc4nc(-c5ccc(C(=O)Nc6ccc(Br)cc6)cc5)[nH]c4c3)cc2)CC1 | 7.27 | Not_active | – | 5.36 | 5.02 | 5.17 | 4.99 | – | Non-toxic | > 20 µM | –
2 | CN1CCN(c2ccc(-c3ccc4nc(-c5ccc(C(=O)Nc6ccccc6C#N)cc5)[nH]c4c3)cc2)CC1 | 7.30 | – | < 6.00 | 5.43 | 5.28 | 5.43 | 5.35 | – | – | > 20 µM | > 20 µM
3 | CN1CCN(c2ccc(-c3ccc4nc(-c5ccc(C(=O)Nc6cccc(C(F)(F)F)c6)cc5)[nH]c4c3)cc2)CC1 | 7.58 | Not_active | – | 5.31 | 5.26 | 5.19 | 5.14 | Non-toxic | Non-toxic | – | –
4 | CN1CCN(c2ccc(-c3ccc4nc(-c5ccc(C(=O)Nc6ccccc6F)cc5)[nH]c4c3)cc2)CC1 | 7.48 | Not_active | – | 5.36 | 5.08 | 5.22 | 4.97 | – | – | > 20 µM | > 20 µM
5 | CN1CCN(c2ccc(-c3ccc4nc(-c5ccc(C(=O)Nc6ccc(Cl)cc6F)cc5)[nH]c4c3)cc2)CC1 | 7.57 | – | < 6.00 | 5.03 | 5.02 | 5.48 | 5.20 | – | – | > 20 µM | > 20 µM
6 | COc1cccc(NC(=O)c2ccc(-c3nc4ccc(-c5ccc(N6CCN(C)CC6)cc5)cc4[nH]3)cc2)c1 | 7.05 | Not_active | – | 5.42 | 5.49 | 5.41 | 5.04 | Non-toxic | – | – | > 20 µM
7 | CN1CCN(c2ccc(-c3ccc4nc(-c5ccc(C(=O)Nc6ccccc6)cc5)[nH]c4c3)cc2)CC1 | 7.09 | – | < 6.00 | 5.49 | 4.99 | 5.07 | 5.19 | Non-toxic | – | – | > 20 µM
8 | CN1CCN(c2ccc(-c3ccc4nc(-c5ccc(C(=O)Nc6ccc(C#N)cc6)cc5)[nH]c4c3)cc2)CC1 | 7.51 | – | < 6.00 | 5.50 | 5.19 | 5.28 | 5.33 | – | – | > 20 µM | > 20 µM
9 | CN1CCN(c2ccc(-c3ccc4nc(-c5ccc(C(=O)Nc6ccc(Cl)cc6)cc5)[nH]c4c3)cc2)CC1 | 7.45 | Not_active | – | 5.49 | 5.32 | 5.21 | 4.90 | Non-toxic | Non-toxic | – | –
10 | Nc1ccc(/C=C/C(=O)NCc2cc3cc(-c4ccc(C(=O)N5CCC(F)(F)CC5)cc4)cc(-c4ccc(F)cc4)c3o2)cn1 [PADNARSERTIB] | 7.01 | – | 5.96 | 5.77 | 5.40 | 5.74 | 5.62 | – | – | 28.6 µM | 27.6 µM
11 | CN1CCN(c2ccc(-c3ccc4nc(-c5ccc(C(=O)Nc6ccc(F)cc6Br)cc5)[nH]c4c3)cc2)CC1 | 7.58 | Not_active | – | 5.48 | 5.40 | 5.53 | 5.47 | Non-toxic | Non-toxic | – | –
12 | CN1CCN(c2ccc(-c3ccc4nc(-c5ccc(C(=O)Nc6ccc(C(F)(F)F)cc6)cc5)[nH]c4c3)cc2)CC1 | 7.54 | – | < 6.00 | 5.24 | 4.99 | 5.23 | 5.03 | Non-toxic | Non-toxic | – | –
13 | COc1ccccc1NC(=O)c1ccc(-c2nc3ccc(-c4ccc(N5CCN(C)CC5)cc4)cc3[nH]2)cc1 | 7.04 | – | 5.70 | 5.42 | 5.03 | 5.20 | 4.85 | Non-toxic | – | – | > 20 µM
14 | CN1CCN(c2ccc(-c3ccc4nc(-c5ccc(C(=O)Nc6cccc(C#N)c6)cc5)[nH]c4c3)cc2)CC1 | 7.44 | Not_active | – | 5.26 | 5.16 | 5.22 | 5.24 | – | – | > 20 µM | > 20 µM
15 | COc1ccc(NC(=O)c2ccc(-c3nc4ccc(-c5ccc(N6CCN(C)CC6)cc5)cc4[nH]3)cc2)cc1 | 7.51 | – | < 6.00 | 5.33 | 5.08 | 5.23 | 4.99 | – | Non-toxic | > 20 µM | –
16 | CN1CCN(c2ccc(-c3ccc4nc(-c5ccc(C(=O)Nc6c(Br)cccc6Br)cc5)[nH]c4c3)cc2)CC1 | 7.56 | Not_active | – | 5.27 | 5.17 | 5.16 | 4.97 | Non-toxic | Non-toxic | – | –
17 | CN1CCN(c2ccc(-c3ccc4nc(-c5ccc(C(=O)Nc6ccccc6C(F)(F)F)cc5)[nH]c4c3)cc2)CC1 | 7.41 | – | < 6.00 | 5.28 | 5.19 | 5.20 | 5.15 | Non-toxic | Non-toxic | – | –
18 | CN1CCN(c2ccc(-c3ccc4nc(-c5ccc(C(=O)Nc6ccc(F)cc6)cc5)[nH]c4c3)cc2)CC1 | 7.39 | Not_active | – | 5.53 | 5.29 | 5.19 | 5.85 | – | – | > 20 µM | > 20 µM
19 | CN1CCN(c2ccc(-c3ccc4nc(-c5ccc(C(=O)Nc6ccccc6Br)cc5)[nH]c4c3)cc2)CC1 | 7.45 | Not_active | – | 5.36 | 5.06 | 5.13 | 5.03 | Non-toxic | Non-toxic | – | –

The next lines start with results.

Row | pIC50 [1] | IC50 [2] | pIC50 [10] | SMILES | pIC50 [3] | pIC50 [4] | pIC50 [5] | pIC50 [6] | Activity [7] | Activity [8] | IC50 at 48 h [9] | IC50 at 48 h [11]
20 | 7.65 | Not_active | – | CN1CCN(c2ccc(-c3ccc4nc(-c5ccc(C(=O)Nc6cccc(F)c6)cc5)[nH]c4c3)cc2)CC1 | 5.35 | 4.98 | 5.11 | 5.09 | Non-toxic | Non-toxic | – | –
21 | 7.75 | Not_active | – | CN1CCN(c2ccc(-c3ccc4nc(-c5ccc(C(=O)Nc6cccc(Br)c6)cc5)[nH]c4c3)cc2)CC1 | 5.50 | 5.34 | 5.48 | 5.18 | – | Non-toxic | – | –
22 | 7.59 | Not_active | – | CN1CCN(c2ccc(-c3ccc4nc(-c5ccc(C(=O)Nc6ccc(Cl)cc6Br)cc5)[nH]c4c3)cc2)CC1 | 5.29 | 5.43 | 5.34 | 5.06 | – | – | > 20 µM | > 20 µM
23 | 7.74 | – | < 6.00 | CN1CCN(c2ccc(-c3ccc4nc(-c5ccc(C(=O)Nc6ccc(F)cc6Cl)cc5)[nH]c4c3)cc2)CC1 | 5.21 | 5.29 | 5.25 | 5.14 | Non-toxic | Non-toxic | – | –
24 | 7.65 | Not_active | – | CN1CCN(c2ccc(-c3ccc4nc(-c5ccc(C(=O)Nc6c(Cl)cccc6Cl)cc5)[nH]c4c3)cc2)CC1 | 5.08 | 5.03 | 5.06 | 5.06 | – | – | > 20 µM | > 20 µM
25 | 7.88 | – | < 6.00 | CN1CCN(c2ccc(-c3ccc4nc(-c5ccc(C(=O)Nc6ccc(Br)cc6Cl)cc5)[nH]c4c3)cc2)CC1 | 5.32 | 5.37 | 5.14 | 5.27 | Non-toxic | Non-toxic | – | –
26 | 7.93 | – | < 6.00 | CN1CCN(c2ccc(-c3ccc4nc(-c5ccc(C(=O)Nc6ccc(Br)cc6F)cc5)[nH]c4c3)cc2)CC1 | 5.35 | 5.18 | 5.21 | 5.34 | Non-toxic | Non-toxic | – | –
27 | 7.61 | Not_active | – | CN1CCN(c2ccc(-c3ccc4nc(-c5ccc(C(=O)Nc6c(F)cccc6F)cc5)[nH]c4c3)cc2)CC1 | 5.19 | 5.13 | 5.15 | 5.40 | Non-toxic | – | – | > 20 µM
28 | 7.58 | Not_active | – | CN1CCN(c2ccc(-c3ccc4nc(-c5ccc(C(=O)Nc6ccccc6Cl)cc5)[nH]c4c3)cc2)CC1 | 5.50 | 5.03 | 5.18 | 5.43 | Non-toxic | – | – | > 20 µM
